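A five-concentration, 48-hour dose response in 96-well plates underlies each endpoint, interpolated linearly between surrounding concentrations. At the GI50, growth is halved. TGI: total growth inhibition.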
How the values were obtained:
Assay in all cases: NCI tumour cell line growth inhibition, 48 h
SN12C renal = system: SN12C renal
IGROV1 ovarian = system: IGROV1 ovarian
A498 renal = system: A498 renal
SK-MEL-2 melanoma = system: SK-MEL-2 melanoma
UACC-62 melanoma = system: UACC-62 melanoma
SK-OV-3 ovarian = system: SK-OV-3 ovarian
SNB-75 CNS = system: SNB-75 CNS
RXF 393 renal = system: RXF 393 renal
TK-10 renal = system: TK-10 renal
M14 melanoma = system: M14 melanoma

Row | SMILES | TGI (SN12C renal) | TGI (IGROV1 ovarian) | TGI (A498 renal) | TGI (SK-MEL-2 melanoma) | TGI (UACC-62 melanoma) | TGI (SK-OV-3 ovarian) | TGI (SNB-75 CNS) | TGI (RXF 393 renal) | TGI (TK-10 renal) | TGI (M14 melanoma) | GI50 (SN12C renal) | GI50 (IGROV1 ovarian) | GI50 (A498 renal) | GI50 (SK-MEL-2 melanoma) | GI50 (UACC-62 melanoma) | GI50 (SK-OV-3 ovarian) | GI50 (SNB-75 CNS) | GI50 (RXF 393 renal) | GI50 (TK-10 renal) | GI50 (M14 melanoma)
1 | Cc1cc(Cl)ccc1N1C(=O)C(=O)C(c2nc3ccccc3o2)C(=O)C1=O | > 100 µM | > 100 µM | > 100 µM | > 100 µM | > 100 µM | > 100 µM | > 100 µM | > 100 µM | > 100 µM | > 100 µM |  |  |  |  |  |  |  |  |  | 
2 | O=c1oc2c(cc1-c1ccccc1)C(O)Oc1ccccc1-2 (centres undefined) | > 100 µM | 91.9 µM | 44.7 µM | 30.6 µM | 39.7 µM | 75.7 µM | 29 µM | 6.41 µM | > 100 µM | 14.5 µM | 20.5 µM | 10.4 µM | 7.98 µM | 5.81 µM | 12.8 µM | 10.2 µM | 3.54 µM | 2.42 µM | 6.46 µM | 3.32 µM
3 | O=C1Nc2ccc(CN3CCOC3=O)cc2/C1=C/c1cc(CN2CCOCC2)c[nH]1 | > 100 µM | > 100 µM | > 100 µM | > 100 µM | > 100 µM | > 100 µM | > 100 µM | > 72.3 µM | > 100 µM | > 93.9 µM | 45.4 µM | 50.6 µM | > 45.2 µM | 39.2 µM | 34.4 µM | 98.9 µM | 52.8 µM | 18.3 µM | 65.5 µM | 34 µM
4 | CNC12C3C4C1C1C2C3C41C(=O)N[C@H](C(=O)N(C)[C@H](C[C@@H](OC(C)=O)c1nc(C(=O)N[C@@H](Cc2ccccc2)C[C@H](C)C(=O)OC)cs1)C(C)C)C1CC1 (some centres undefined) | > 15 µM | > 13.4 µM | > 10.9 µM |  | 2.98 µM | > 15 µM | 2.73 µM | 1.33 µM | > 15 µM |  | 0.612 µM | 0.172 µM | 1.06 µM | 0.189 µM | 0.0921 µM | 0.714 µM | 0.129 µM | 0.213 µM | 0.562 µM | 0.294 µM
5 | O=C(c1ccccc1)c1ccc(O)c2ncccc12 | 14.8 µM | 11.9 µM | 27.4 µM | 43.3 µM | 10.6 µM | 19.1 µM | 90.7 µM | 19.6 µM | > 100 µM | 19.5 µM | 2.46 µM | 2.4 µM | 9.29 µM | 12 µM | 2.34 µM | 6.02 µM | 15 µM | 3.18 µM | 6.99 µM | 2.7 µM
6 | CCOC(=O)N1CCc2cc(OC)c(OC)cc2/C1=C/c1ccc(OC)c(OC)c1 | > 100 µM | > 100 µM | > 100 µM | > 100 µM | > 100 µM | > 100 µM | > 100 µM | > 100 µM | > 100 µM | > 100 µM |  |  |  |  |  |  |  |  |  | 
7 | COc1ccc(C(=O)C/C(=N/NC(N)=S)C(=O)Nc2ccccc2)cc1 | > 100 µM | > 100 µM | > 100 µM | > 100 µM | > 100 µM | > 100 µM | > 100 µM | > 100 µM | > 100 µM | > 100 µM |  |  |  |  |  |  |  |  |  | 
8 | NC1=NCC(c2ccccn2)C1c1ccc(F)cc1 (centres undefined) | > 100 µM | > 100 µM | > 100 µM | > 100 µM | > 100 µM | > 100 µM | > 100 µM | > 100 µM | > 100 µM | > 100 µM |  |  |  |  |  |  |  |  |  | 
9 | C=C1[C@@H](O)C[C@H]2C(C)(C)C[C@H](Cl)C[C@]2(C)[C@H]1C[C@H](O)[C@H]1CC(=O)NC1=O | 0.108 µM | 0.0853 µM | 0.0723 µM | 0.0469 µM | 0.15 µM | 0.157 µM | 0.706 µM | 0.0722 µM | 0.151 µM | 0.0492 µM | < 0.01 µM | 0.0114 µM | 0.0207 µM | < 0.0111 µM | 0.0194 µM | 0.0135 µM | 0.0287 µM | 0.0132 µM | 0.0253 µM | < 0.0119 µM
10 | Clc1ccc(-c2nc(C(Cl)Cl)nc3cc(-c4ccccc4)nn23)cc1 | > 50 µM | > 50 µM | 2.21 µM | > 50 µM |  | 4.75 µM | > 50 µM | 1.87 µM | > 50 µM |  | > 50 µM | 2.4 µM | 0.912 µM | > 50 µM |  | 1.38 µM | 0.957 µM | 0.813 µM | 2.23 µM | 
11 | O=C([CH-]C(=O)c1ccccc1)c1ccccc1.[CH3-].[CH3-].[CH3-].[Sn+4] | > 100 µM | > 100 µM | > 100 µM | 56.9 µM | 65.8 µM | 70.1 µM | > 100 µM | 31.9 µM | 84.9 µM | 29.5 µM | 17.3 µM | 33.1 µM | 35.4 µM | 7.68 µM | 12.2 µM | 27.1 µM | 19.4 µM | 10.6 µM | 31.7 µM | 14.7 µM
12 | CN(C)CCC(/C=C/c1ccccc1)=N\Nc1ccc(Cl)cc1 | 7.03 µM | 7.53 µM | 21.8 µM | 4.4 µM | 4.95 µM | 13.4 µM | 15.6 µM | 20.9 µM | 7.85 µM | 12.5 µM |  |  |  |  |  |  |  |  |  | 
13 | CC(C)(C)c1cc(-c2c3nc(c(-c4cc(C(C)(C)C)cc(C(C)(C)C)c4)c4ccc([nH]4)c(-c4cc(C(C)(C)C)cc(C(C)(C)C)c4)c4nc(c(-c5cc(C(C)(C)C)cc(C(C)(C)C)c5)c5ccc2[nH]5)C=C4)C=C3)cc(C(C)(C)C)c1 | > 100 µM | > 100 µM | > 100 µM | > 100 µM | > 100 µM | > 100 µM | > 100 µM | > 100 µM | > 100 µM | > 100 µM |  |  |  |  |  |  |  |  |  | 
14 | CNC(C)[C@H]1CCC2C3CCC4C[C@@H](N(C)C(=O)c5ccccc5)CC[C@]4(C)C3CC[C@@]21C (some centres undefined) | 8.34 µM | 7.73 µM | 10.2 µM | 5.4 µM | 2.64 µM | 5.29 µM | 5.12 µM | 4.26 µM | 7.83 µM | 2.95 µM | 1.82 µM | 1.96 µM | 1.65 µM | 2.6 µM | 1.02 µM | 2.06 µM | 1.97 µM | 1.73 µM | 2.16 µM | 1.3 µM

Reference: PubChem BioAssay (NCI)
